Test results from publication PMC12040169 (PLOS Biology, 2025).

Key:
[1] = system: T1, CTL2-GFP (C. trachomatis L2/434/Bu, GFP-expressing); experiment: microbe, parasite or virus in culture; parameters: Intracellular C. trachomatis growth in HeLa cells, bulk GFP fluorescence relative to DMSO; conditions: Chlamydia trachomatis, HeLa, 28.5 h; bulk GFP, mean of 2; read-out: % of control remaining
T1 construct: L2/434/Bu, GFP-expressing
Method: MICs were calculated as described above.

[2] = system: T2, C. trachomatis L2/434/Bu expressing GFP (CTL2-GFP); experiment: microbe, parasite or virus in culture; parameters: C. trachomatis total inclusion area by high-content imaging, normalised to DMSO; conditions: Chlamydia trachomatis, HeLa, 28.5 h; total inclusion area; read-out: % of control remaining
T2 construct: L2/434/Bu GFP intracellular growth in HeLa cells
Text: We screened a library of 36,785 small molecules displaying drug-like properties and covering a wide chemical space (Fig 1A and S2A Data). In this process, we also complemented the assay described above with an imaging-based readout (Fig 1B). After measurements of bulk GFP and resorufin fluorescence, cells were fixed, stained with the DNA dye Hoechst, and imaged at a high-content imaging platform to detect chlamydial inclusions (GFP) and host cell nuclei (Hoechst). The total area and number of inclusions in individual wells and the number of nuclei then served as additional proxies for chlamydial growth and host cell viability. […] MICs were calculated as described above.

in vitro = experiment: in vitro; parameters: Viability of infected HeLa host cells, resazurin conversion, bulk resorufin fluorescence relative to DMSO; conditions: human, hela cells; bulk resorufin, mean of 2

Compound	activity at 1 µM [1] [%]	activity at 5 µM [1] [%]	activity at 10 µM [1] [%]	activity at 1 µM [2] [%]	activity at 5 µM [2] [%]	activity at 10 µM [2] [%]	viability at 28.5 h, 1 µM (in vitro) [%]	viability at 28.5 h, 5 µM (in vitro) [%]	viability at 28.5 h, 10 µM (in vitro) [%]
Cc1noc(NS(=O)(=O)c2ccc(NC(=O)COc3cccc(Br)c3)cc2)c1C [CBK264086]	96.8	38.7	17.8	93.1	45.5	20.6	89.3	91.3	94.3
Cc1ccc(C(=O)/C=C\Nc2ccc(S(=O)(=O)Nc3cc(C)nc(C)n3)cc2)cc1 [CBK264384]	110	72.4	31.8	79.2	51.7	35.8	107	108	104
CCc1ccc(S(=O)(=O)Nc2cc(SCC(=O)O)c(O)c3ccccc23)cc1 [CBK265580]	97.7	47	37.3	84.1	15.3	7.41	95.6	88.8	81.9
Cc1cc(C)nc(NC(=N)NCCc2c[nH]c3ccccc23)n1 [CBK266321]	89.2	67.2	37.1	75.6	44.4	14.7	109	98.8	81.2
OCCNc1nc(Nc2ccc(Br)cc2)nc2ccccc12 [CBK266724C]	69.3	0.15	0	59.5	2.92	0.726	122	116	121
O=C(CC1SC(Nc2ccc(O)cc2)=NC1=O)c1ccccc1 (stereo not drawn) [CBK267009]	65.7	34	33	84.6	35.2	35.5	114	112	107
O=C(CSCc1ccc(Cl)cc1)Nc1ccc(S(=O)(=O)N2CCCCCC2)cc1 [CBK267017]	99.4	85	60.7	92.3	104	54.9	101	104	104
O=C(O)c1[nH]c2ccccc2c1C(c1ccsc1)c1c(C(=O)O)[nH]c2ccccc12 [CBK267811]	113	109	85.2	49.5	80.4	22.6	99.3	106	121
Cc1cc(C(=O)Nc2ccc(S(=O)(=O)Nc3onc(C)c3C)cc2)no1 [CBK268166]	113	81.5	33.7	89.9	77.7	61.3	101	92.7	100
COc1ccc(OC)c(Nc2nc(NCC3CCCO3)c3ccccc3n2)c1 (stereo not drawn) [CBK268403C]	127	105	26.6	73.4	61	10.2	97.5	96.9	99.1
CN(C(=O)Cc1ccsc1)c1nc2c(s1)CCc1c-2cnn1C [CBK281929]	104	56.8	29.8	85.4	28.7	14.3	103	96	93.3
COc1ccc2cc3c(nc2c1)OC(=O)N(CC1CC1)C3 [CBK282432]	92.7	19	0.603	90.9	15.2	0.584	112	108	110
CCC(CN1CCCC1)NC(=O)Cc1ccc(OC)c(C)c1 (stereo not drawn) [CBK282752]	100	50.3	19.9	108	47.2	26.1	108	112	108
O=C1CC[C@@H](NCc2cccs2)[C@H](c2cc(F)cc(F)c2)N1 [CBK283129]	98.3	98.8	82.2	98.3	76.7	78.8	112	109	110
COc1ccc([C@H]2CN(Cc3ccccc3)[C@@H]3CCN(C(=O)Cc4ccsc4)C[C@H]23)cc1 [CBK285551]	151	107	36.7	148	87.9	48.8	89.3	93.6	93
COc1ccc(CC(=O)N2CCCC(c3nc(C)c4c(n3)N(CC3CC3)CCC4)C2)cc1 (stereo not drawn) [CBK286228]	130	39.3	5.11	88.7	46.6	3.42	102	97.8	97
COc1ccc([C@H]2CN(Cc3ccccc3)[C@@H]3CCN(C(=O)Cc4ccccc4)C[C@H]23)cc1 [CBK286285]	130	111	49.2	109	95.8	41.4	93.8	97.6	104
CC(C(=O)N1CCC2(CC1)NC(=O)c1ccccc1N2)(c1ccccc1)c1ccccc1 [CBK286308]	96.5	59.6	46.3	82.6	44.9	28.3	97.7	93.1	101
CC(=O)N1CCc2sccc2C1c1ccccc1NCc1ccoc1 (stereo not drawn) [CBK286432]	87.1	34	26.3	61.5	24.5	22.5	85	86.8	85.9
CCC(=O)N1CCCc2cc(C(O)CN3CCN(c4ccc(F)cc4)CC3)ccc21 (stereo not drawn) [CBK286480]	116	62	10.5	104	58.2	7.99	93	84	90.3
CN1CCN(c2cc3c(cc2F)c(=O)c(C(=O)O)cn3-c2ccc(F)cc2)CC1 [CBK287138]	14.6	5.16	0.93	11.1	0.783	0.31	103	102	104
CCCCC(=O)/N=C(\N)Nc1nc2ccccc2o1 [CBK287937]	119	117	117	100	71.1	60.6	106	102	100
Oc1ccc(Cn2cnc3ccccc32)c2cccnc12 [CBK291202]	103	47.1	19.3	116	52.7	24.3	105	104	96
Cc1ccc(Nc2ncc(C(=O)NCCCN3CCN(c4cccc(Cl)c4)CC3)c3ccccc23)cc1Cl [CBK291251]	89.3	83.3	70.2	93.1	97.7	75.8	106	113	99.2
COc1ccc(Br)cc1C1CC(=O)Nc2c(-c3cccc(F)c3)csc21 (stereo not drawn) [CBK294442]	132	65.3	59.3	118	29.4	66.4	96.8	96.5	95.7
